Data as given in ChEMBL document CHEMBL4480398, “1,2,4-Triazolo[1,5-a]pyrimidines in drug design” (Eur J Med Chem, 2019).
≈ marks a conversion by molar mass, not a printed value. Each block holds one compound with its values, some of them ahead of it.

Columns and labels:
Leishmania donovani = test: Antileishmanial activity against Leishmania donovani MHOM/SD/62/1S-CL2D axenic amastigote after 48 hrs by CellTiter-Glo luminescent cell viability assay; type: functional, organism-based
Trypanosoma brucei = test: Antitrypanosomal activity against Trypanosoma brucei Lister 427 bloodstream form after 48 hrs by CellTiter-Glo luminescent cell viability assay; type: functional, organism-based; conditions: Lister 427, 48 h
Trypanosoma cruzi = test: Antitrypanosomal activity against Trypanosoma cruzi Tulahuen amastigotes expressing beta-galactosidase infected in mouse NIH3T3 cells after 6 days; type: functional, organism-based; conditions: NIH3T3, 144 h
[1] = Oral bioavailability in mouse at 20 mg/kg administered as single dose; type: ADME, organism-based; conditions: in vivo
[2] = Inhibition of Plasmodium falciparum DHODH expressed in Escherichia coli by DCIP staining-based spectrophotometric analysis
[3] = target: Dihydroorotate dehydrogenase (quinone), mitochondrial (Homo sapiens, UniProt Q02127); test: Inhibition of human DHODH expressed in Escherichia coli by DCIP staining-based spectrophotometric analysis
[4] = Aqueous solubility of compound; type: physicochemical; conditions: buffer
[5] = Intrinsic clearance in human liver microsomes assessed per mg protein by LC-MS analysis; type: ADME, Microsome; conditions: read-out: CLH
[6] = Intrinsic clearance in mouse liver microsomes assessed per mg protein by LC-MS analysis; type: ADME, Microsome; conditions: read-out: CLH
[7] = target: Fatty acid-binding protein, adipocyte (Homo sapiens, UniProt P15090); test: Binding affinity to recombinant FABP4 (unknown origin) expressed in Escherichia coli by sypro orange dye-based TdF assay
[8] = Dissociation constant, pKa of compound; type: physicochemical
[9] = Cytotoxicity against mouse primary peritoneal macrophages; type: cell-based, Peritoneal macrophage
[10] = Protein binding in human plasma by ultracentrifugation method; type: ADME, cell-free
[11] = Lipophilicity, log D of the compound at pH 7.4 by shake flask method; type: physicochemical; conditions: buffer
[12] = Cytotoxicity against mouse NIH/3T3 cells after 5 days by CellTiter-Glo luminescent cell viability assay; type: cell-based, NIH3T3

Dihydroorotate dehydrogenase (quinone), mitochondrial, sequence (Q02127 whole entry): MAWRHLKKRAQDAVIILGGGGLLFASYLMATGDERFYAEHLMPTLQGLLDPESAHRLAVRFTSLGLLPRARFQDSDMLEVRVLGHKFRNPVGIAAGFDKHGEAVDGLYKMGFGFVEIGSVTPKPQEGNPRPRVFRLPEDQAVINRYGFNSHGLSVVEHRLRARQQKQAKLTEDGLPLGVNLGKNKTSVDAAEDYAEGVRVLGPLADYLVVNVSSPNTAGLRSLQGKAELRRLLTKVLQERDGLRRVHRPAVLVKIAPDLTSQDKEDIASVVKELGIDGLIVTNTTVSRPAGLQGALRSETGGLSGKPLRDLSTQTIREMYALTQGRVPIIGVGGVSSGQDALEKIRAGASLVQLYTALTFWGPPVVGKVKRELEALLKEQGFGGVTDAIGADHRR
Fatty acid-binding protein, adipocyte, sequence (P15090 whole entry): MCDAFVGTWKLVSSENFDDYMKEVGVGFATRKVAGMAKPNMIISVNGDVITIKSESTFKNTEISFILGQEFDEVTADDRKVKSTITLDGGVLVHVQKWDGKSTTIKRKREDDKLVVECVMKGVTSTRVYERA

EC50 (Trypanosoma brucei): 22 nM
EC50 (Trypanosoma cruzi): 16 nM
bioavailability [1]: < 34%
SMILES: Cc1nc(C)c(C(=O)Nc2ccc(F)c(-c3nc4ncc(-c5ccccc5)cn4n3)c2)o1
EC50 (Leishmania donovani): 71 nM

EC50 (Trypanosoma brucei): 150000 nM
EC50 (Trypanosoma cruzi): 75 nM
SMILES: O=C(Nc1ccc(Cl)c(-c2nc3ncccc3o2)c1)c1ccco1
EC50 (Leishmania donovani): 7300 nM
CC50 [9]: > 50 µM

EC50 (Trypanosoma brucei): 70 nM
bioavailability [1]: < 34%
SMILES: Cc1nc(C)c(C(=O)Nc2ccc(F)c(-c3nc4ncc(-c5ccccn5)cn4n3)c2)o1

IC50 [3]: > 200 µM
solubility [4]: 45 to 90 µM (≈ 12.4 to 24.8 µg/mL)
SMILES: Cc1cc(Nc2ccc3ccccc3c2)n2ncnc2n1

Kd [7]: 860 nM
SMILES: COc1ccc(Cl)cc1NCc1cc(=O)n2nc(-c3ccccc3)nc2[nH]1

EC50 (Trypanosoma brucei): 79 nM
EC50 (Trypanosoma cruzi): 55 nM
SMILES: CC(C)OC(=O)Nc1cnc2nc(-c3cc(NC(=O)c4ccco4)ccc3Cl)nn2c1
EC50 (Leishmania donovani): 350 nM
CC50 at 120 h [12]: 9 µM
CC50 [9]: 14 µM

More lines, now with the values behind:

SMILES: Cc1cc(Nc2cc(F)c(C(F)(F)F)c(F)c2)n2ncnc2n1
IC50 [2]: 190 nM
IC50 [3]: > 30 µM
solubility [4]: 9 to 18 µM (≈ 2.96 to 5.93 µg/mL)
microsomal CLint [5]: < 5 µL/min/mg
microsomal CLint [6]: < 6 µL/min/mg

SMILES: Cc1c(Cl)cccc1NCc1cc(=O)n2nc(-c3ccccc3)nc2[nH]1
Kd [7]: 10 nM
pKa [8]: 4.6

SMILES: Cc1cc(Nc2ccc(S(F)(F)(F)(F)F)cc2)n2nc(C(C)(F)F)nc2n1 [DSM-265]
IC50 [2]: 33 nM
solubility [4]: 70 to 140 µM (≈ 29.1 to 58.1 µg/mL)
PPB [10]: 90.4%
microsomal CLint [5]: < 5 µL/min/mg
microsomal CLint [6]: 10.1 µL/min/mg

SMILES: O=c1cc(CNc2cccc(Cl)c2C2CC2)[nH]c2nc(-c3ccccc3)nn12
Kd [7]: 20 nM

SMILES: Cc1cc(Nc2ccc(C(F)(F)F)nc2)n2nc(C(C)(F)F)nc2n1
IC50 [2]: 14 nM
IC50 [3]: > 100 µM
logD [11]: 2.5
solubility [4]: > 100 µM
fraction unbound ([10]; read-out: PPB): 0.5
microsomal CLint [6]: 5.1 µL/min/mg
